{"source": "ChEMBL document CHEMBL3425485", "about": "(J Med Chem, 2015)", "key": {"Cytochrome P450 1A1": {"target": "T1, Cytochrome P450 1A1 (Homo sapiens, UniProt P04798)", "T1 sequence (P04798 whole entry)": "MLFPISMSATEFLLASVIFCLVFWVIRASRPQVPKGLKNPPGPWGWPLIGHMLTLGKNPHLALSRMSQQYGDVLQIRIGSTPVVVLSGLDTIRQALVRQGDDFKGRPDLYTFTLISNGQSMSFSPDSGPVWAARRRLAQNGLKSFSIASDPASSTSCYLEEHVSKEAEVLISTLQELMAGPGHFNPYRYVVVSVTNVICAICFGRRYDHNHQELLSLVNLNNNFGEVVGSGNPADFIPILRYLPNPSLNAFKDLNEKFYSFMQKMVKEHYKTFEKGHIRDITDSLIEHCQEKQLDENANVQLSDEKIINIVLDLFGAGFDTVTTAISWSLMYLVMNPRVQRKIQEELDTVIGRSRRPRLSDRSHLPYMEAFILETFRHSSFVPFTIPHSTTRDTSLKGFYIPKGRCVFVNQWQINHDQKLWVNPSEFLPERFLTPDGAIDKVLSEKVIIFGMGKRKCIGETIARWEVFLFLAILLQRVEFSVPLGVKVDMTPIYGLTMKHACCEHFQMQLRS", "assay": "Drug metabolism assessed as recombinant CYP1A1 (unknown origin)-mediated compound intrinsic clearance measured per mg of protein", "assay_type": "ADME", "conditions": "recombinant enzyme"}, "[1]": {"assay": "Total plasma clearance in iv dosed rat", "assay_type": "ADME, organism-based"}, "[2]": {"assay": "Drug metabolism in rat kidney microsomes assessed as compound turnover", "assay_type": "ADME"}, "HeLa [3]": {"tested_on": "HeLa", "assay": "Selectivity for BRCA1 shRNA-transfected human HeLa cells over wild type human HeLa cells"}, "[4]": {"assay": "Drug metabolism in rat lung microsomes assessed as compound turnover", "assay_type": "ADME"}, "[5]": {"assay": "Intrinsic clearance in human liver microsomes measured per mg of protein"}, "[6]": {"target": "Poly [ADP-ribose] polymerase 1 (Homo sapiens, UniProt P09874)", "sequence (P09874 whole entry)": "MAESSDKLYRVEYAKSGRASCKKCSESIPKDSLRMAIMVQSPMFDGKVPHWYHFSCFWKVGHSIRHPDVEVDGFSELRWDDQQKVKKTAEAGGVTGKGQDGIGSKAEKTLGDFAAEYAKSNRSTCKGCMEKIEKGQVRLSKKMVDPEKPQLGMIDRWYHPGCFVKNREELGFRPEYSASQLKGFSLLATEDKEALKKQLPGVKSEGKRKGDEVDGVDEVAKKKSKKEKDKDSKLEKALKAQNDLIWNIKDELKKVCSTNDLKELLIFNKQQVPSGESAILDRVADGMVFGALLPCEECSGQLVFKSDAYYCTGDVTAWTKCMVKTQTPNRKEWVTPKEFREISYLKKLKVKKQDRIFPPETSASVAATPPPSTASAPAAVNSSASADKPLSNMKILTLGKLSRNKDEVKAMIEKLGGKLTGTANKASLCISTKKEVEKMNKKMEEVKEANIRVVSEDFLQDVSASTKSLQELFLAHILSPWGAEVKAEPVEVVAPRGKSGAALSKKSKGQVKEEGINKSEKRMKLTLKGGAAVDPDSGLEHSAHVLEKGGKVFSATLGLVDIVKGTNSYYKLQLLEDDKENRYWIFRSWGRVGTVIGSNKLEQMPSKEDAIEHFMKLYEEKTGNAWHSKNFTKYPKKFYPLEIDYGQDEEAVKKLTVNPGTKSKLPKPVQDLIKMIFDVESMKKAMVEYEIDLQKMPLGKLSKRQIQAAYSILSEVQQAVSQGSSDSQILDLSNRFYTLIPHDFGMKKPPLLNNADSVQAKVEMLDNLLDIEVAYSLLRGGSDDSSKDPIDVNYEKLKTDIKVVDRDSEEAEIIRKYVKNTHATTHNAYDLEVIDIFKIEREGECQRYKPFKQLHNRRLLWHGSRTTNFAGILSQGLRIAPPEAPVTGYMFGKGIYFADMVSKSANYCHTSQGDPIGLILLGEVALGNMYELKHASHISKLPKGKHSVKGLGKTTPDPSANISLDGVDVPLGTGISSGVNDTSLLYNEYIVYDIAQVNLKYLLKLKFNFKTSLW", "description": "Inhibition of PARP1 (unknown origin)"}, "[7]": {"assay": "Plasma clearance in rat", "assay_type": "ADME"}, "in vitro [8]": {"assay": "in vitro", "conditions": "human, UWB1.289 cells expressing BRCA1", "description": "Cytotoxicity against human UWB1.289 cells expressing BRCA1 assessed as inhibition of cell proliferation after 5 to 7 days by CellTiter-Blue assay"}, "Plasma [9]": {"tested_on": "Plasma", "assay": "Plasma trough concentration in human at 40 mg/day", "conditions": "read-out: Cmin"}, "[10]": {"assay": "Volume of distribution at steady state in rat", "conditions": "in vivo"}, "Rattus norvegicus": {"species_on_record": "Rattus norvegicus", "assay": "Terminal half life in rat", "assay_type": "ADME, organism-based", "conditions": "in vivo"}, "[11]": {"assay": "Drug metabolism in iv dosed bile cannulated dog assessed as parent compound recovery"}, "[12]": {"assay": "Antitumor activity against BRCA2-deficient human Capan1 cells xenografted in immunocompromised mouse assessed as tumor growth inhibition at 80 mg/kg, po qd for 2 to 4 weeks", "conditions": "CAPAN-1, po, read-out: TGI"}, "MDA-MB-436 [13]": {"tested_on": "MDA-MB-436", "conditions": "Homo sapiens, 80 mg/kg", "description": "Antitumor activity against human MDA-MB-436 cells harboring BRCA1 mutant xenografted in immunocompromised mouse assessed as tumor growth inhibition at 80 mg/kg, po qd for 1 to 2 weeks"}, "cells [14]": {"assay": "cells", "conditions": "Homo sapiens, SUM149PT", "description": "Cytotoxicity against human SUM149PT cells carrying BRCA1 mutant assessed as inhibition of cell proliferation after 5 to 7 days by CellTiter-Blue assay"}, "in vivo": {"assay": "in vivo", "conditions": "dog, plasma"}, "in vitro [15]": {"assay": "in vitro", "conditions": "human, BT20 cells", "description": "Cytotoxicity against human BT20 cells assessed as inhibition of cell proliferation after 5 to 7 days by CellTiter-Blue assay"}, "A549 [16]": {"tested_on": "A549", "assay": "cells", "conditions": "Homo sapiens", "description": "Cytotoxicity against human A549 cells transfected with BRCA2 shRNA assessed as inhibition of cell proliferation after 5 to 7 days by CellTiter-Blue assay"}, "[17]": {"target": "T2, PARP 1, 2 and 3 (Homo sapiens) (UniProt P09874+Q9Y6F1+Q9UGN5)", "conditions": "MDA-MB-436, 50 to 100 mg/kg", "description": "Inhibition of PARP activity in tumor of immunocompromised mouse xenografted with human MDA-MB-436 cells harboring BRCA1 mutant assessed as incorporation of [3H]NAD in PAR chains in response to nicked DNA at 50 to 100 mg/kg, po measured after 24 hrs"}, "[18]": {"assay": "Plasma concentration in CD-1 mouse at 50 mg/kg, po after 24 hrs"}, "HeLa [19]": {"tested_on": "HeLa", "assay": "Cytotoxicity against human HeLa cells transfected with BRCA1 shRNA assessed as reduction of cell viability after 5 to 7 days by CellTiter-Blue assay", "assay_type": "functional"}, "[20]": {"target": "T2, PARP 1, 2 and 3 (Homo sapiens)", "conditions": "HeLa", "description": "Inhibition of PARP in human HeLa cells assessed as inhibition of hydrogen peroxide-induced PARylation by cell-based assay"}, "DoTc2-4510": {"tested_on": "DoTc2-4510", "assay": "cells", "conditions": "Homo sapiens", "description": "Cytotoxicity against human DoTc2-4510 cells carrying BRCA2 mutant assessed as inhibition of cell proliferation after 5 to 7 days by CellTiter-Blue assay"}, "A549 [21]": {"tested_on": "A549", "assay": "cells", "conditions": "Homo sapiens", "remark": "listed apart in the source", "description": "Cytotoxicity against wild type human A549 cells assessed as inhibition of cell proliferation after 5 to 7 days by CellTiter-Blue assay"}, "[22]": {"target": "T2, PARP 1, 2 and 3 (Homo sapiens)", "conditions": "CAPAN-1", "description": "Inhibition of PARP in BRCA2-deficient human CAPAN-1 cells assessed as inhibition of hydrogen peroxide-induced PARylation by cell-based assay"}, "cells [23]": {"assay": "cells", "conditions": "Homo sapiens, UWB1289", "description": "Cytotoxicity against human UWB1.289 cells carrying BRCA1 mutant assessed as inhibition of cell proliferation after 5 to 7 days by CellTiter-Blue assay"}, "[24]": {"assay": "Fraction unbound in mouse plasma"}, "[25]": {"assay": "Cytotoxicity against human SUM1315MO2 cells carrying BRCA1 mutant assessed as inhibition of cell proliferation after 12 days by CellTiter-Blue assay", "conditions": "SUM1315MO2, 288 h"}, "[26]": {"assay": "Drug metabolism in iv dosed bile cannulated rat assessed as parent compound recovery"}, "[27]": {"target": "T2, PARP 1, 2 and 3 (Homo sapiens)", "conditions": "A2780", "description": "Inhibition of PARP in human A2780 cells assessed as inhibition of hydrogen peroxide-induced PARylation by cell-based assay"}, "[28]": {"assay": "Terminal half life in dog", "conditions": "in vivo"}, "[29]": {"assay": "Volume of distribution at steady state in dog", "conditions": "in vivo"}, "[30]": {"assay": "Fraction unbound in human plasma"}, "MDA-MB-436 [31]": {"tested_on": "MDA-MB-436", "conditions": "Homo sapiens, 50 mg/kg", "description": "Antitumor activity against human MDA-MB-436 cells harboring BRCA1 mutant xenografted in immunocompromised mouse assessed as tumor growth inhibition at 50 mg/kg, po administered daily"}, "HeLa [32]": {"tested_on": "HeLa", "assay": "cells", "conditions": "Homo sapiens", "description": "Cytotoxicity against wild type human HeLa cells assessed as inhibition of cell proliferation after 5 to 7 days by CellTiter-Blue assay"}, "[33]": {"assay": "Oral bioavailability in dog", "conditions": "in vivo"}, "[34]": {"target": "T2, PARP 1, 2 and 3 (Homo sapiens)", "conditions": "CAPAN-1, 50 to 100 mg/kg", "description": "Inhibition of PARP activity in tumor of immunocompromised mouse xenografted with BRCA2-deficient human Capan1 cells assessed as incorporation of [3H]NAD in PAR chains in response to nicked DNA at 50 to 100 mg/kg, po measured after 24 hrs"}, "Plasma [35]": {"tested_on": "Plasma", "assay": "Plasma trough concentration in human at 300 mg/day", "conditions": "read-out: Cmin"}}, "note": "pIC50: −log10 of the molar value. Activity calls are given as the source filed them. The rule behind the calls is not given here."}
{"smiles": "CNC(C)(C)c1ccc(-n2cc3cccc(C(N)=O)c3n2)cc1", "values": [{"measurement": "CL", "setting": "Cytochrome P450 1A1", "result": 0.4, "unit": "µL/min"}, {"measurement": "clearance", "setting": "[1]", "result": 30, "unit": "mL/min/kg"}]}
{"smiles": "CN(C)Cc1ccc(-n2cc3cccc(C(N)=O)c3n2)cc1", "values": [{"measurement": "Drug metabolism", "setting": "[2]", "result": "metabolite_detected"}, {"measurement": "CL", "setting": "Cytochrome P450 1A1", "result": 8.7, "unit": "µL/min"}, {"measurement": "Selectivity ratio", "setting": "HeLa [3]", "result": ">10"}, {"measurement": "Drug metabolism", "setting": "[4]", "result": "metabolite_detected"}]}
{"smiles": "NC(=O)c1cccc2cn(-c3ccc([C@H]4CCCNC4)cc3)nc12", "values": [{"measurement": "CL", "setting": "Cytochrome P450 1A1", "result": 7, "unit": "µL/min"}, {"measurement": "microsomal CLint", "setting": "[5]", "result": 4, "unit": "µL/min/mg"}]}
{"smiles": "NC(=O)c1cccc2cn(-c3ccc4c(c3)CCNC4)nc12", "values": [{"measurement": "CL", "setting": "Cytochrome P450 1A1", "result": 0.7, "unit": "µL/min"}, {"measurement": "clearance", "setting": "[1]", "result": 30, "unit": "mL/min/kg"}]}
{"smiles": "NC(=O)c1cccc2cn(-c3ccc(C4CCCN4)cc3)nc12", "note": "(stereo not drawn)", "values": [{"measurement": "CL", "setting": "Cytochrome P450 1A1", "result": 22, "unit": "µL/min"}]}
{"smiles": "NC(=O)c1cccc2cn(-c3ccc(C4CCCNC4)cc3)nc12", "note": "(stereo not drawn)", "values": [{"measurement": "CL", "setting": "Cytochrome P450 1A1", "result": 11, "unit": "µL/min"}]}
{"smiles": "O=C(O)c1cccc2cn(-c3ccc([C@@H]4CCCNC4)cc3)nc12", "values": [{"measurement": "pIC50", "setting": "[6]", "result": 8.42}]}
{"smiles": "NC(=O)c1cccc2cn(-c3ccccc3)nc12", "values": [{"measurement": "clearance", "setting": "[7]", "result": 30, "unit": "mL/min/kg"}]}
{"smiles": "CNCc1ccc(-n2cc3cccc(C(N)=O)c3n2)cc1", "values": [{"measurement": "CL", "setting": "Cytochrome P450 1A1", "result": 6, "unit": "µL/min"}]}
{"smiles": "NC(=O)c1cccc2cn(-c3ccc([C@@H]4CCCNC4)cc3)nc12", "note": "[NIRAPARIB]", "values": [{"measurement": "CC50", "setting": "in vitro [8]", "result": 975, "unit": "nM"}, {"measurement": "concentration", "setting": "Plasma [9]", "result": 288, "unit": "nM"}, {"measurement": "Vd", "setting": "[10]", "result": 6.9, "unit": "L/kg"}, {"measurement": "beta t1/2", "setting": "Rattus norvegicus", "result": 3.4, "unit": "h"}, {"measurement": "dose excreted", "setting": "[11]", "result": "< 5", "unit": "%"}, {"measurement": "inhibition in vivo at 80 mg/kg", "setting": "[12]", "result": 60, "unit": "%"}, {"measurement": "TGI", "setting": "MDA-MB-436 [13]", "result": "Active"}, {"measurement": "CC50", "setting": "cells [14]", "result": 24, "unit": "nM"}, {"measurement": "clearance", "setting": "in vivo", "result": 31, "unit": "mL/min/kg"}, {"measurement": "CC50", "setting": "in vitro [15]", "result": 2200, "unit": "nM"}, {"measurement": "CC50", "setting": "A549 [16]", "result": 11, "unit": "nM"}, {"measurement": "inhibition", "setting": "[17]", "result": "> 90", "unit": "%"}, {"measurement": "concentration at 24 h", "setting": "[18]", "result": 100, "unit": "nM"}, {"measurement": "CC50", "setting": "HeLa [19]", "result": 34, "unit": "nM"}, {"measurement": "IC90", "setting": "[20]", "result": 46, "unit": "nM"}, {"measurement": "CC50", "setting": "DoTc2-4510", "result": 23, "unit": "nM"}, {"measurement": "CC50", "setting": "A549 [21]", "result": 1760, "unit": "nM"}, {"measurement": "IC90", "setting": "[22]", "result": 50, "unit": "nM"}, {"measurement": "CC50", "setting": "cells [23]", "result": 56, "unit": "nM"}, {"measurement": "fraction unbound", "setting": "[24]", "result": 0.26}, {"measurement": "CC50", "setting": "[25]", "result": 20, "unit": "nM"}, {"measurement": "dose excreted", "setting": "[26]", "result": 45, "unit": "%"}, {"measurement": "CL", "setting": "Cytochrome P450 1A1", "result": 16, "unit": "µL/min"}, {"measurement": "IC90", "setting": "[27]", "result": 52, "unit": "nM"}, {"measurement": "half-life", "setting": "[28]", "result": 342, "unit": "min"}, {"measurement": "Vd", "setting": "[29]", "result": 12.3, "unit": "L/kg"}, {"measurement": "microsomal CLint", "setting": "[5]", "result": 3, "unit": "µL/min/mg"}, {"measurement": "fraction unbound", "setting": "[30]", "result": 0.16}, {"measurement": "inhibition", "setting": "MDA-MB-436 [31]", "result": "Active"}, {"measurement": "CC50", "setting": "HeLa [32]", "result": 852, "unit": "nM"}, {"measurement": "bioavailability", "setting": "[33]", "result": 57, "unit": "%"}, {"measurement": "inhibition", "setting": "[34]", "result": "> 90", "unit": "%"}, {"measurement": "concentration", "setting": "Plasma [35]", "result": "> 2000", "unit": "nM"}]}
